From patent US4328242A, “α-(3,4,5-Trimethoxyhenzoyl)thiopropionyl-glycine” (Ausoria Farmaceutici S.r.l., priority 1980, dated 1982)

Experiments:
[1] = system: albino Sprague-Dawley rats; experiment: Toxicity in the fetus, rats; format: in vivo; details: daily oral and subcutaneous, 250 and 500 mg/kg, four weeks prior to coupling and twenty days of gestation
Description: (§1) Toxicity in the fetus of TBPG has been studied in albino Sprague-Dawley rats and in New Zealand rabbits. In the case of rats both male and female, the treatment has been initiated four weeks prior to coupling and then has been continued only in the females during the twenty days of gestation.
(§2) In the case of female rabbits, the treatment has been carried out during the twenty eight days of gestation.

New Zealand rabbits = experiment: Toxicity in the fetus, rabbits; format: in vivo; details: female rabbits, daily oral and subcutaneous, 250 and 500 mg/kg, twenty eight days of gestation
Description: as §1, §2

anaesthesized cats = experiment: Pharmacodynamics in anaesthesized cats; format: in vivo; details: up to 50 mg/kg intravenously
rats [2] = experiment: Protective action on chronic bronchitis induced by inhalation of SO2; format: in vivo; details: SO2 aerosol, 100 and 400 mg/kg oral, rectal and inhalation, two weeks
Protocol: Bronchopulmonary lesions were induced in the animals by aerosolization of SO2. The animals were then treated for two weeks with TBPG in the dosage of 100 and 400 mg/kg by the oral route, rectal route and by inhalation.

rats [3] = experiment: Bronchosecretolithic activity in rats (sodium fluorescine method); format: in vivo; details: 300 mg/kg intraperitoneally
Protocol: The secretolithic activity of TBPG has been determined in comparison to α-mercaptopropionylglycine by administering 300 mg/kg of the substance intraperitonally and comparing with 135 mg/kg of α-mercaptopropionylglycine administered also intraperitoneally. The doses are equimolar. The method is based on the use of sodium fluorescine described by H. M. Mawatari (Experimental Studies on the Expectorant Action of Several Drugs, Kogoshima Daigakeu Igakeu Zasshi 27, 561, 1976).

[4] = Isothermic (accelerated) stability according to the method of Garret, TLC; format: physicochemical
Protocol: The tests of accelerated stability have been carried out with the substance in powder form, that is in glass vials, hermetically closed with a plastic screw cap and also with the substance dissolved in water, that is 500 mg in 10 cc in a transparent glass container of 20 cc capacity closed with a plastic screw cap.
The production of impurities, if any, due to degradation of the substance, has been determined by means of TLC.

Stability to moisture = format: physicochemical; details: open vials, 90% relative humidity, a month
Protocol: Samples of TBPG and MPG have been maintained in open vials at room temperature under conditions of 90% relative humidity and at 50° C. always with 90% relative humidity. After a month of exposure, the following observations have been made.

[5] = Stability in reducing medium (SO2); format: physicochemical; details: 25 mg/ml, sodium bisulfite calculated as SO2, refluxed three hours
Protocol: In the presence of SO2 --solutions containing 25 mg/ml of TBPG and MPG respectively in the presence of sodium bisulfite calculated as SO2 are warmed and refluxed for a period of three hours.

Solubility = format: physicochemical
Description: The structure of the compound is confirmed by analytical and spectroscopic analysis, specifically IR and NMR spectra. The compound is in the form of a white micro-cyrstalline powder, odorless and almost tasteless. It is soluble in a saturated solution of sodium bicarbonate and in other basic solutions. The substance is insoluble in water, soluble in warm ethanol.

With COc1cc(C(=O)SC(C)C(=O)NCC(=O)O)cc(OC)c1OC (stereo not drawn) [TBPG, α-(3,4,5-trimethoxybenzoyl)thiopropionylglycine] the “toxicity in the fetus (deformation, number and weight of living offspring)” value [1] was “has not induced any deformation in the fetus and has not affected the number and the weight of the living offspring”, the “toxicity in the fetus (deformation, number and weight of living offspring)” value (New Zealand rabbits) was “has not induced any deformation in the fetus and has not affected the number and the weight of the living offspring” and the arterial pressure (anaesthesized cats) was “low and temporary reduction”. The “cardiac frequency, respiratory dynamics and electrocardiogram” value (anaesthesized cats) was “without any effect”, the tolerance (anaesthesized cats) was “very high tolerance” and the “protection of the bronchi and lungs (bronchopulmonary lesions and mortality)” value (rats [2]) was “significant action in the protection of the bronchi and lungs”. The bronchosecretolithic activity (rats [3]) was 34.4%, the “Chromatographic Impurities” value ([4]; Powder, 60°, 320 hours) was “Absent” and the “Chromatographic Impurities” value ([4]; Powder, 70°, 120 hours) was “Absent”. The “Chromatographic Impurities” value ([4]; Powder, 70°, 240 hours) was “Absent”, the “Chromatographic Impurities” value ([4]; Powder, 80°, 45 hours) was “Absent” and the “Chromatographic Impurities” value ([4]; Powder, 80°, 180 hours) was “Absent”. The “Chromatographic Impurities” value ([4]; Solution (500 mg in 10 cc water), 60°, 0 hours) was “Absent”, the “Chromatographic Impurities” value ([4]; Solution (500 mg in 10 cc water), 60°, 320 hours) was “Absent” and the degraded at 640 h ([4]; Solution (500 mg in 10 cc water), 60°, 640 hours, read-out: Chromatographic Impurities) was 0.5%. The degraded at 960 h ([4]; Solution (500 mg in 10 cc water), 60°, 960 hours, read-out: Chromatographic Impurities) was 0.7%, the degraded at 1280 h ([4]; Solution (500 mg in 10 cc water), 60°, 1280 hours, read-out: Chromatographic Impurities) was 1.2% and the degraded at 1600 h ([4]; Solution (500 mg in 10 cc water), 60°, 1600 hours, read-out: Chromatographic Impurities) was 1.3%. The “Chromatographic Impurities” value ([4]; Solution (500 mg in 10 cc water), 70°, 180 hours) was “Absent”, the degraded at 240 h ([4]; Solution (500 mg in 10 cc water), 70°, 240 hours, read-out: Chromatographic Impurities) was 1.1% and the degraded at 480 h ([4]; Solution (500 mg in 10 cc water), 70°, 480 hours, read-out: Chromatographic Impurities) was 1.2%. The “Chromatographic Impurities” value ([4]; Solution (500 mg in 10 cc water), 80°, 45 hours) was “Absent”, the degraded at 90 h ([4]; Solution (500 mg in 10 cc water), 80°, 90 hours, read-out: Chromatographic Impurities) was 1.2% and the degraded at 120 h ([4]; Solution (500 mg in 10 cc water), 80°, 120 hours, read-out: Chromatographic Impurities) was 1.3%. For the same molecule, the stability to moisture (Stability to moisture; 50° C.) was “slight yellow color, but no degradation products”, the stability to moisture (Stability to moisture; room temperature (t.a.)) was “no decomposition” and the “stability in reducing medium” value [5] was “undergoes no physico-chemical change or organoleptic change”. For the same molecule, the solubility (Solubility; saturated solution of sodium bicarbonate and other basic solutions) was “soluble”, the solubility (Solubility; warm ethanol) was “soluble” and the solubility (Solubility; water) was “insoluble”.
